Measured values from patent US20130029928A1 (priority 2010, published 2013).
Read-outs that look alike come from different tables or passages of the source.

Assay: Phase I study CXR1002-001: plasma pharmacokinetics (LC-MS/MS)
Type: in vivo, human
Details: human, plasma, oral, person, plasma, read-out: Concentration; for concentration at 336 h: 336 hr (Day 15); for concentration at 360 h: 360 hr (Day 16); for concentration at 504 h: 504 hr (Day 22); for concentration at 528 h: 528 hr (Day 23); for concentration at 672 h: 672 hr (Day 29); for concentration at 696 h: 696 hr (Day 30); for concentration at 840 h: 840 hr (Day 36); for concentration at 864 h: 864 hr (Day 37); for concentration at 24 h: 24 hr (Day 2); for concentration at 168 h: 168 hr (Day 8)
Excerpt: PK samples, PD (fasting) samples, blood glucose, and blood triglyceride samples, were taken over a 6-week period.
Dose limiting toxicity (DLT) will be based on the toxicity assessments over the first 3-week period of the repeat dosing schedule. PK samples (single blood sample) were taken on the following basis: • Every 6 weeks during the repeat dosing phase • If dosing is interrupted or stopped, samples will be taken at intervals according to patient convenience • PK sampling for safety evaluation may take place at any time, as clinically indicated
Plasma samples were collected after the single 50 mg dose at the following timepoints: Pre-dose, and then 0.25, 0.5, 0.75, 1, 1.5, 2, 3, 4, 6, 24, 48, and 72 hours after administration and then once weekly at weeks 2, 3, 4, 5, and 6 (days 8, 15, 22, 29, and 36). For patients treated with the weekly repeat dose, plasma samples were collected at the following timepoints: Pre-dose and then 2, 3, 4 and 24 hours after administration for a total of 6 weeks. Thereafter a single sample was collected every 6 weeks for monitoring of exposure during long term treatment. Plasma samples were processed at site and stored at −80° C. prior to batch shipment to the analytical laboratory.

With O=C(O)C(F)(F)C(F)(F)C(F)(F)C(F)(F)C(F)(F)C(F)(F)C(F)(F)F [CXR1002] the concentration at 192 h (600 mg, Patient 021, 600 mg, 192 hr (Day 9)) was 479 µM, the concentration at 336 h (600 mg, Patient 021, 600 mg) was 412 µM and the concentration at 338 h (600 mg, Patient 021, 600 mg) was 650 µM. For the same compound, the concentration at 339 h (600 mg, Patient 021, 600 mg) was 653 µM, the concentration at 340 h (600 mg, Patient 021, 600 mg) was 633 µM and the concentration at 360 h (600 mg, Patient 021, 600 mg) was 604 µM. The concentration at 504 h (600 mg, Patient 021, 600 mg) was 605 µM, the concentration at 506 h (600 mg, Patient 021, 600 mg) was 734 µM and the concentration at 507 h (600 mg, Patient 021, 600 mg) was 654 µM. The concentration at 508 h (600 mg, Patient 021, 600 mg) was 722 µM, the concentration at 528 h (600 mg, Patient 021, 600 mg) was 678 µM and the concentration at 672 h (600 mg, Patient 021, 600 mg) was 613 µM. It also gave a concentration at 674 h (600 mg, Patient 021, 600 mg) of 681 µM, a concentration at 675 h (600 mg, Patient 021, 600 mg) of 847 µM and a concentration at 676 h (600 mg, Patient 021, 600 mg) of 845 µM. The concentration at 696 h (600 mg, Patient 021, 600 mg) was 799 µM, the concentration at 840 h (600 mg, Patient 021, 600 mg) was 779 µM and the concentration at 842 h (600 mg, Patient 021, 600 mg) was 968 µM. The concentration at 843 h (600 mg, Patient 021, 600 mg) was 928 µM, the concentration at 844 h (600 mg, Patient 021, 600 mg) was 981 µM and the concentration at 864 h (600 mg, Patient 021, 600 mg) was 995 µM. The concentration at 2 h (600 mg, Patient 022, 600 mg) was 193 µM, the concentration at 3 h (600 mg, Patient 022, 600 mg) was 196 µM and the concentration at 4 h (600 mg, Patient 022, 600 mg) was 199 µM. It also gave a concentration at 24 h (600 mg, Patient 022, 600 mg) of 157 µM, a concentration at 168 h (600 mg, Patient 022, 600 mg) of 143 µM and a concentration at 170 h (600 mg, Patient 022, 600 mg) of 310 µM. The concentration at 171 h (600 mg, Patient 022, 600 mg) was 270 µM, the concentration at 172 h (600 mg, Patient 022, 600 mg) was 276 µM and the concentration at 192 h (600 mg, Patient 022, 600 mg, 192 hr (day 9)) was 298 µM. It also gave a concentration at 336 h (600 mg, Patient 022, 600 mg) of 289 µM, a concentration at 338 h (600 mg, Patient 022, 600 mg) of 433 µM and a concentration at 339 h (600 mg, Patient 022, 600 mg) of 433 µM. The concentration at 340 h (600 mg, Patient 022, 600 mg) was 405 µM, the concentration at 360 h (600 mg, Patient 022, 600 mg) was 427 µM and the concentration at 504 h (600 mg, Patient 022, 600 mg) was 426 µM. For the same compound, the concentration at 506 h (600 mg, Patient 022, 600 mg) was 441 µM, the concentration at 507 h (600 mg, Patient 022, 600 mg) was 562 µM and the concentration at 508 h (600 mg, Patient 022, 600 mg) was 519 µM. The concentration at 528 h (600 mg, Patient 022, 600 mg) was 596 µM, the concentration at 2 h (600 mg, Patient 023, 600 mg) was 208 µM and the concentration at 3 h (600 mg, Patient 023, 600 mg) was 233 µM. The concentration at 4 h (600 mg, Patient 023, 600 mg) was 236 µM, the concentration at 24 h (600 mg, Patient 023, 600 mg) was 221 µM and the concentration at 168 h (600 mg, Patient 023, 600 mg) was 204 µM. The concentration at 170 h (600 mg, Patient 023, 600 mg) was 336 µM, the concentration at 171 h (600 mg, Patient 023, 600 mg) was 337 µM and the concentration at 172 h (600 mg, Patient 023, 600 mg) was 391 µM. It also gave a concentration at 192 h (600 mg, Patient 023, 600 mg, 192 hr (day 9)) of 400 µM, a concentration at 336 h (600 mg, Patient 023, 600 mg) of 432 µM and a concentration at 338 h (600 mg, Patient 023, 600 mg) of 495 µM. For the same compound, the concentration at 339 h (600 mg, Patient 023, 600 mg) was 613 µM, the concentration at 340 h (600 mg, Patient 023, 600 mg) was 636 µM and the concentration at 360 h (600 mg, Patient 023, 600 mg) was 616 µM. It also gave a concentration at 2 h (600 mg, Patient 024, 600 mg) of 91.6 µM, a concentration at 3 h (600 mg, Patient 024, 600 mg) of 188 µM and a concentration at 4 h (600 mg, Patient 024, 600 mg) of 283 µM. For the same compound, the concentration at 24 h (600 mg, Patient 024, 600 mg) was 258 µM, the concentration at 168 h (600 mg, Patient 024, 600 mg) was 212 µM and the concentration at 170 h (600 mg, Patient 024, 600 mg) was 436 µM. It also gave a concentration at 171 h (600 mg, Patient 024, 600 mg) of 441 µM, a concentration at 172 h (600 mg, Patient 024, 600 mg) of 439 µM and a concentration at 192 h (600 mg, Patient 024, 600 mg, 192 hr (Day 9)) of 418 µM. The concentration at 336 h (600 mg, Patient 024, 600 mg) was 488 µM, the concentration at 338 h (600 mg, Patient 024, 600 mg) was 578 µM and the concentration at 339 h (600 mg, Patient 024, 600 mg) was 533 µM. The concentration at 340 h (600 mg, Patient 024, 600 mg) was 628 µM, the concentration at 360 h (600 mg, Patient 024, 600 mg) was 647 µM and the concentration at 504 h (600 mg, Patient 024, 600 mg) was 691 µM. The concentration at 506 h (600 mg, Patient 024, 600 mg) was 642 µM, the concentration at 507 h (600 mg, Patient 024, 600 mg) was 706 µM and the concentration at 508 h (600 mg, Patient 024, 600 mg) was 630 µM. For the same compound, the concentration at 528 h (600 mg, Patient 024, 600 mg) was 859 µM, the concentration at 672 h (600 mg, Patient 024, 600 mg) was 788 µM and the concentration at 674 h (600 mg, Patient 024, 600 mg) was 694 µM. The concentration at 675 h (600 mg, Patient 024, 600 mg) was 779 µM, the concentration at 676 h (600 mg, Patient 024, 600 mg) was 780 µM and the concentration at 696 h (600 mg, Patient 024, 600 mg) was 811 µM. It also gave a concentration at 840 h (600 mg, Patient 024, 600 mg) of 814 µM, a concentration at 842 h (600 mg, Patient 024, 600 mg) of 898 µM and a concentration at 843 h (600 mg, Patient 024, 600 mg) of 904 µM. For the same compound, the concentration at 844 h (600 mg, Patient 024, 600 mg) was 908 µM, the concentration at 864 h (600 mg, Patient 024, 600 mg) was 966 µM and the concentration at 2 h (750 mg, Patient 026, 750 mg) was 95.8 µM. It also gave a concentration at 3 h (750 mg, Patient 026, 750 mg) of 125 µM, a concentration at 4 h (750 mg, Patient 026, 750 mg) of 149 µM and a concentration at 24 h (750 mg, Patient 026, 750 mg) of 200 µM. It also gave a concentration at 168 h (750 mg, Patient 026, 750 mg) of 186 µM, a concentration at 170 h (750 mg, Patient 026, 750 mg) of 270 µM and a concentration at 171 h (750 mg, Patient 026, 750 mg) of 301 µM. For the same compound, the concentration at 172 h (750 mg, Patient 026, 750 mg) was 339 µM, the concentration at 192 h (750 mg, Patient 026, 750 mg, 192 hr (Day 9)) was 398 µM and the concentration at 336 h (750 mg, Patient 026, 750 mg) was 352 µM. The concentration at 338 h (750 mg, Patient 026, 750 mg) was 399 µM, the concentration at 339 h (750 mg, Patient 026, 750 mg) was 506 µM and the concentration at 340 h (750 mg, Patient 026, 750 mg) was 492 µM. It also gave a concentration at 360 h (750 mg, Patient 026, 750 mg) of 625 µM, a concentration at 504 h (750 mg, Patient 026, 750 mg) of 479 µM and a concentration at 506 h (750 mg, Patient 026, 750 mg) of 625 µM. The concentration at 507 h (750 mg, Patient 026, 750 mg) was 546 µM, the concentration at 508 h (750 mg, Patient 026, 750 mg) was 582 µM and the concentration at 528 h (750 mg, Patient 026, 750 mg) was 608 µM. The concentration at 672 h (750 mg, Patient 026, 750 mg) was 594 µM, the concentration at 674 h (750 mg, Patient 026, 750 mg) was 606 µM and the concentration at 675 h (750 mg, Patient 026, 750 mg) was 655 µM. It also gave a concentration at 676 h (750 mg, Patient 026, 750 mg) of 698 µM, a concentration at 696 h (750 mg, Patient 026, 750 mg) of 732 µM and a concentration at 840 h (750 mg, Patient 026, 750 mg) of 728 µM. It also gave a concentration at 842 h (750 mg, Patient 026, 750 mg) of 824 µM, a concentration at 843 h (750 mg, Patient 026, 750 mg) of 776 µM and a concentration at 844 h (750 mg, Patient 026, 750 mg) of 822 µM. It also gave a concentration at 864 h (750 mg, Patient 026, 750 mg) of 812 µM, a concentration at 2 h (750 mg, Patient 027, 750 mg) of 110 µM and a concentration at 4 h (750 mg, Patient 027, 750 mg) of 224 µM. The concentration at 24 h (750 mg, Patient 027, 750 mg) was 199 µM.
